From paper PMC7617456, “Cryptosporidium lysyl-tRNA synthetase inhibitors define the interplay between solubility and permeability required to achieve efficacy” (Science translational medicine, 2024)
Like-named read-outs stand apart in the source and are kept apart here.

Key:
C. parvum = assay: microbe, parasite or virus in culture; format: cell-based, Cryptosporidium parvum; settings: for EC90: HCT-8, read-out: C. parvum EC90
HepG2 = HepG2 in vitro cytotoxicity; format: cell-based, human; settings: for EC50: Homo sapiens, HepG2, cytotoxicity; for Cellular selectivity: ratio of mean HepG2/C. parvum EC50
PAMPA permeability = format: in vitro ADME; settings: for Papp at 5 h, 10 µM: PAMPA, pH 7.4, pH 7.4
Description: Solubility test samples were prepared by adding 5 μL stock to PBS pH 7.4 (195 μL). […] […] vacuum […] (Millipore Multiscreen HTS fi lter, 96-well format) to remove any undissolved material. The […] analyzed for dissolved drug compound using a truncated UHPLC methodology. A calibration solution was prepared for each test compound. […] Aliquots of the test sample […] (0.4 and 5.0 μL) were injected onto the UHPLC system and the resultant test compound peak areas quantifi ed […] PAMPA per meability As previously described.(28) The permeability assay was performed using a 96-well precoated BD Gentest PAMPA plate (BD Biosciences). Each well was divided into two chambers: donor and acceptor, separated by a lipid-oil-lipid trilayer constructed in a porous fi lter. […] Stock solutions (5 mM) of the compound were prepared in DMSO. […] The compound dissolved in phosphate buffered saline was added to the donor side of the membrane, and phosphate-buffered saline without the compound was added to the acceptor side. The PAMPA plate was left at room temperature for 5 h then an aliquot (100 μL) was removed from both acceptor and donor compartments and mixed with acetonitrile (80 μL) containing an internal standard: donepezil at 50 ng/mL. The samples were centrifuged (10 min, 5 °C, 3270×g) to sediment lipids and sealed prior to UPLC-MS/MS analysis using a Quattro Premier XE (Waters Corp, USA). Recovery of the compound from donor and acceptor wells was calculated, and data were only accepted when recovery exceeded 70%.

[1] = test system: transgenic C. parvum that express NanoLuciferase; assay: IFN-Gamma KO mouse acute efficacy model; format: in vivo; settings: DDD489, DDD508 50 mg/kg BID; DDD706 20 mg/kg QD; oral 7 days from day 6 PI
Description: First, compounds were tested in the acute cryptosporidiosis mouse model, IFN-Gamma KO.([16]) In this model, infection peaks at approximately 10-12 days PI, and resolves within a month. Mice were infected with a strain of transgenic C. parvum that expresses NanoLuciferase (NLuc).([12]) Mice were treated orally for 7 days starting on day 6 PI (Fig. 4A) and a NanoLuciferase assay was used to determine parasite shedding in feces (RLUs/g). Control mice received either vehicle (Fig. 4B, white) or positive control, DDD706 (Fig. 4B, black; NLuc parasites are genetically engineered to be resistant to paromomycin, so DDD706 serves as the positive control) at 20 mg/kg QD; DDD489 and DDD508 were tested at 50 mg/kg BID.
Male IFN-Gamma knockout mice (B6.129S7-Ifng^tmlTS/J, JAX 002287; purchased from Jackson Labs and bred at the University of Dundee) aged 30 weeks old were used, (n = 5 mice per experimental group). Mice were infected by oral gavage (100 oocysts of Δtk::mNeon-Neo^R as described previously([12])). Compounds were prepared in HMPC without DMSO and administered by oral gavage at 50 mg/kg starting day 6 PI. Early lead compound DDD706 served as the positive control (administered at 20 mg/kg QD). Fecal samples were pooled from all mice in the cage on days indicated. Oocyst shedding in feces was determined by NanoLuciferase assay (20 mg of fecal material was homogenized in 1 ml of lysis buffer and assayed for NLuc activity as previously described).([12])

wild type parasites (WT) = assay: Transgenic C. parvum NanoLuciferase drug sensitivity assay, WT; format: cell-based; settings: Cryptosporidium parvum, HCT-8, 48 h, read-out: EC50, WT
[2] = Hepatocyte intrinsic clearance, mouse; format: in vitro ADME; settings: mouse hepatocytes
[3] = Hepatocyte intrinsic clearance, dog; format: in vitro ADME; settings: dog hepatocytes
[4] = Plasma protein binding, mouse; format: in vitro ADME; settings: mouse PPB assay, read-out: fraction unbound (fu)
CYP450 2D6 = CYP450 2D6 (Homo sapiens, UniProt P10635); assay: CYP450 inhibition 2D6; format: in vitro ADME
Description: CYP450 inhibition (Dundee)
As previously described.(31)
DDD489 and DDD508 were evaluated for their ability to induce reverse mutations both in the presence and absence of S9 mix at the histidine locus in the genome of four strains of Salmonella typhimurium (TA98, TA100, TA1535, and TA97a) and at the tryptophan locus in the genome of Escherichia coli WP2 uvrA in a mini-Ames study conducted at WuXi App Tec […]
hERG inhibition (WuXi App Tec)
DDD489 and DDD508 were evaluated for their effects on cloned hERG potassium channels stably expressed in Chinese Hamster Ovary (CHO) cells using manual patch-clamp technique in a hERG inhibition assay conducted at WuXi App Tec (Suzhou).
Mitochondrial toxicity (Cyprotex)
DDD489 and DDD508 were evaluated for their effects on mitochondrial function in a functional mitochondrial toxicity assay using Seahorse XFe96 flux analyser conducted at […]
44 screen safety panel (Eurofins)
DDD489 was evaluated for off-target effects in a SafetyScreen44 panel at Eurofins Cerep.
All regulated procedures, at the University of Dundee, on living animals were carried out under the authority of a project license issued by the Home Office under the Animals (Scientific Procedures) Act 1986, as amended in 2012 (and in compliance with EU Directive EU/2010/63). […]

[5] = Cryptosporidium parvum, HCT-8, 48 h, read-out: C. parvum EC50, co-cultured with HCT-8 cells for 48 hrs
[6] = read-out: C. parvum EC50, co-cultured with HCT-8 cells for 48 hrs

CYP450 2D6, sequence (P10635 whole entry): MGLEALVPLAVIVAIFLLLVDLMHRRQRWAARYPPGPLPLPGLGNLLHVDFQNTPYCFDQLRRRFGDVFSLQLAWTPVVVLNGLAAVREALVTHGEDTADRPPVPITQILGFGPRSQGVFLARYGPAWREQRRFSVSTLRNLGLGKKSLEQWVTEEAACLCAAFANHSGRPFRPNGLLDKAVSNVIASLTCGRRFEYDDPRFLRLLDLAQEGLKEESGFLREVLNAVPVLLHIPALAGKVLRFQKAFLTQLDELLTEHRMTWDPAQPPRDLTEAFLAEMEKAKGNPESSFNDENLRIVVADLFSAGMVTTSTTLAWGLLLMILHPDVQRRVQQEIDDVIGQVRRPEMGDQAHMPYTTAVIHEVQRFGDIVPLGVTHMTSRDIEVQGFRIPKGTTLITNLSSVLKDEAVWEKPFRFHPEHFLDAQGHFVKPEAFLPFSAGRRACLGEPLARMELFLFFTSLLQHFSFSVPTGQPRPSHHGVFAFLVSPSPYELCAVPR

SMILES	EC50 (C. parvum; [5])	EC90 (C. parvum; Cryptosporidium parvum)	EC50 (C. parvum; [6])	EC50 (HepG2)	Cellular selectivity (HepG2)	Papp at 5 h, 10 µM (PAMPA permeability)	PAMPA Papp (PAMPA permeability; pH 7.4)	parasite shedding during treatment period [1]	recrudescence [1]	EC50 (wild type parasites (WT))	Heps CLi (m) [2]	Heps CLi (d) [3]	fraction unbound [4]	IC50 (CYP450 2D6)
O=C(NCC1(O)CCCCC1)c1cc(=O)c2cc(O)ccc2o1 [DDD508]	132 nM	380 nM	130 nM	18000 nM	140 fold	0.69 ×10⁻⁶ cm/s	0.7 ×10⁻⁶ cm/s	reduced parasite shedding below the limit of quantitation (LOQ)	unable to prevent recrudescence	270 nM	3.7 mL/min/g	1.2 mL/min/g	0.6	> 100000 nM
Nc1nc2c(c(C(F)(F)F)n1)C(=O)N(CC1CCCC(C(F)(F)F)C1)C2 (stereo not drawn) [DDD489]	43 nM	100 nM	40 nM	18000 nM	450 fold	17.1 ×10⁻⁶ cm/s	–	reduced parasite shedding below the LOQ	able to prevent parasite recrudescence	85 nM	10 mL/min/g	1.8 mL/min/g	0.16	8000 nM
